# According to patent US8101368B2, “Quantitation of cellular DNA and cell numbers using element labeling” (DVS Sciences Inc., priority 2006, dated 2012):
# Legend:
# KG-1a cells = assay: Viability with trypan blue of cells cultured in Pd-supplemented media; format: cell-based; details: 500 ppb Pd in growth media, 72 hours
# Experimental: (§1) The experiment was set up to investigate if metals passively accumulated by cells could be indicative of cell number and cell type. For this purpose two different leukemia cell lines were cultured for 72 hours in growth media supplemented with very low amounts of rare earth metals: 100 ppb Rh was added to MBA-1 cells, and 500 ppb Pd was added to KG-1a cells which express the cell surface marker. During the three days of cell culture, aliquots of cells were tested for viability with trypan blue. […] Cells were collected by centrifugation (1200 rpm, 10 minutes), washed once in PBS/10% FBS and counted in a hemocytometer. Serial dilutions were prepared to give 1×10^6, 0.5×10^6, 1×10^5, 1×10^4, 1×10^3, and 1×10^2 KG-1a cells in a population of MBA-1 cells (1×10^6) per tube in triplicates (Table 1). In this example Pd will reflect the number of KG-1a cells and the presence of surface marker CD34 will specify the cell type, while MBA-1 cells are marked by Rh. Immunolabeling was carried out by adding anti-CD34 antibodies to tubes containing decreasing amounts of live KG-1a cells and incubating for 45 minutes on ice. Negative control tubes were reacted with the IgG1 isotype control immunoglobulins. After three low speed centrifugation washes with PBS/10% FBS all samples were incubated with biotinylated anti-mouse antibodies. […]
# MBA-1 cells [1] = assay: Viability with trypan blue of cells cultured in Rh-supplemented media; format: cell-based; details: 100 ppb Rh in growth media, 72 hours
# Experimental: as §1
# MBA-1 cells [2] = assay: Binding of increasing concentrations of Rh(III) intercalator to fixed/permeabilized cells, ICP-MS; format: cell-based; details: 2.5 nanoM to 250 microM, 45 minutes, 1×10^6 fixed/permeabilized cells; linear response
# Experimental: Binding of an intercalator to DNA is governed by the law of mass action. Assuming that a mammalian cell in G1 phase has 3.3×10^9 DNA base pairs of which only 10-70% are free from protein interaction (nucleosomes) and available for binding with the intercalator (one molecule per two base pairs at saturation), the number of molecules of dye needed is approximately 1-10×10^8. Thus for [Rh(phi)2bpy]Cl3, with 671 MW, 1 ml of 200 uM solution should be 100-fold excess of intercalator over DNA binding sites for 1×10^6 cells. The binding of various amounts of the Rh(III) intercalator with cultured cells was assessed. MBA-1 cells were fixed in 3.7% formaldehyde/PBS for 15 minutes, followed by permeabilization with 0.3% TRITON™ X-100/PBS; washed once with PBS and incubated for 45 minutes with 1 ml of increasing concentrations of [Rh(phi)2bpy]Cl3 from 2.5 nanoM to 250 microM. Each sample contained 1×10^6 cells, run in triplicates. Following washing, the cell pellets were treated with concentrated HCl, mixed with an equal volume of 1 ppb Ir internal standard, and analyzed in solution by ICP-MS.
# DNA = details: rhodium/base pair ratios of 2:1; cited from earlier work
# MBA-1 cells [3] = test system: MBA-1 cells
# Experimental: Reactivity of the Rh(III) metallointercalator with fixed and fixed/permeabilized versus live cells was also examined. Equal amounts of MBA-1 cells (1×10^6) were either fixed/permeabilized as above, fixed in 3.7% formaldehyde alone or left untreated (live cells). After two washes in PBS the cells were incubated with 200 uM [Rh(phi)2bpy]Cl3 for 30 minutes; washed three more times and dissolved in HCl.
# K562 cells = assay: Cell cycle synchronization checked by propidium iodide flow cytometry; format: cell-based
# Experimental: Cells were synchronized in G1/S and G2/M phases of the cell cycle using a DNA synthesis inhibitor, thymidine, followed by a mitotic inhibitor, nocodazole. The DNA content of the G0/G1 phase is centered at 2n. Treatment with double thymidine results in a G1/S-phase arrested cell population with approximately […]. Nocodazole addition following a single thymidine treatment arrests cells in the G2/M stage with 4n DNA content. K562 cells were treated with 2 mM thymidine added to culture medium for 17 hours. The cells were then washed and incubated in fresh media for 9 hours. At the end of this rest period the culture was split into two flasks—one received the second dose of 2 mM thymidine (double thymidine block) to arrest cells at G1/S; the other—0.2 ug/ml nocodazole (single thymidine-nocodazole block) to arrest cells at the M phase. The inhibitors were left in culture media for 17 hours. […] After several washes the cells were digested in concentrated HCl and analyzed by ICP-MS. […] Treatment of stained cells with enzymes shifts the detected Rh values due to enhanced binding of metallointercalator to naked DNA. […] In the case of RNAse A treatment—degradation of small RNA molecules bound to DNA such as siRNA that may block interaction of intercalator and DNA may lead to higher detected Rh values.
smiles,measurement,setting,value
"[Pd] [Pd, palladium]",Cell death due to presence of metal in media,KG-1a cells,No excessive cell death
"[Rh] [Rh, rhodium]",Cell death due to presence of metal in media,MBA-1 cells [1],No excessive cell death
[Cl-].[Cl-].[Cl-].[NH-]c1c([NH-])c2ccccc2c2ccccc12.[NH-]c1c([NH-])c2ccccc2c2ccccc12.[Rh].c1ccc(-c2ccccn2)nc1 [[Rh(phi)2bpy]Cl3],Saturation of DNA binding (normalized Rh signal response),MBA-1 cells [2],without reaching a saturation limit
same,Sequence dependence of binding to DNA,DNA,sequence neutral and random
same,Membrane permeability in live cells,MBA-1 cells [3],membrane impermeable
COC(=O)Nc1nc2ccc(C(=O)c3cccs3)cc2[nH]1 [nocodazole],Cell cycle phase after block,"K562 cells; single thymidine-nocodazole block, 0.2 ug/ml nocodazole, 17 hours",practically all cells were in M phase
Cc1cn([C@H]2C[C@H](O)[C@@H](CO)O2)c(=O)[nH]c1=O [thymidine],Cell cycle phase after block,"K562 cells; double thymidine block, 2 mM, 17 hours each",majority of cells were in G1/S
